According to patent publication US12295968B2, “Compositions and methods for targeted immunomodulatory antibodies and fusion proteins” (The Johns Hopkins University, priority 2010, dated 2025):
Entries after “also recorded” stand apart in the source; their conditions may differ.

Experiments:
[1] = test system: tumor-reactive CD8^+ T cells; assay: Flow cytometry of IFN-γ expression in CD8^+ T cells from tumor and draining lymph node, stimulation with MB49 cell lysates; format: in vivo, C57BL/6 mice
Description: (§1) (FIG. 55A) In vivo depletion of tumor-infiltrating CD4^+CD25^+FoxP3^+ T cells by treatment of tumor-bearing mice with anti-CD4 antibody. C57BL/6 mice injected with 5×10^5 MB49 tumor cells s.c. were left untreated (control) or administered an anti-CD4 antibody (Clone GK1.5) i.p. at 5 d and 9 d following tumor challenge. CD4^+CD25^+FoxP3^+ T cells infiltrating tumors isolated from mice at d16 following tumor challenge were detected by flow cytometry. […] Flow cytometric analyses of peripheral blood mononuclear cells isolated from mice at d16 following tumor challenge determined the percentage of CD4^+ T cells or CD8^+ T cells among total mononuclear cells, and the percentage of CD4^+CD25^+FoxP3^+ T cells among total CD4^+ T cells. […] Tumor-reactive immune responses were determined by flow cytometric analyses of IFN-γ expression in CD8^+ T cells from the tumor and draining lymph node in response to in vitro stimulation with MB49 cell lysates. […] Tumor volume was monitored to determine the effect of depleting either CD4^+ T cells or CD8^+ T cells on the in vivo antitumor efficacy of doxorubicin. […]

[2] = test system: mouse MB49 bladder cancer cells; assay: Surface exposure of calreticulin (CRT), immunofluorescence cytometry; format: cell-based; details: 4 h
MB49 tumors [3] = assay: MB49 tumor volume, chemotherapy with or without anti-CD4 or anti-CD8 antibody; format: in vivo, C57BL/6 mice
Description: as §1

MB49 tumors [4] = assay: Intratumoral doxorubicin in mice with pre-established MB49 tumors, tumor growth; format: in vivo, C57BL/6 mice
[5] = test system: human SW780 bladder cancer cells; assay: Surface exposure of calreticulin (CRT), immunofluorescence cytometry; format: cell-based; details: doxorubicin 10 μM, 4 h
MB49 tumor cells = assay: Priming of tumor-reactive immune responses: IFN-γ production by draining lymph node (DLN) cells on in vitro re-challenge; format: in vivo, C57BL/6 mice; details: intratumoral doxorubicin 10 μg at d10 following tumor inoculation, established tumors
[6] = test system: mouse NKG2D ligands (Rae-1); assay: Quantitative real-time PCR of Rae1 transcripts in CT26 cells; format: cell-based; details: irinotecan 25 μg/ml or oxaliplatin 10 μg/ml
CT26 tumors = assay: CT26 tumor volume, irinotecan with or without NKG2D blocking, anti-CD4 and/or anti-CD8 antibody; format: in vivo, Balb/C mice; details: irinotecan alone
[7] = test system: human NKG2D ligands (MICA/MICB); assay: Flow cytometry of cell surface MICA/B on HCT116 cells; format: cell-based; details: irinotecan 25 μg/ml, 16 h

N.N.[Cl][Pt][Cl] [cisplatin]
IFN-γ expression in CD8^+ T cells ([1]; cisplatin alone, 0.5 mg/kg i.p. weekly×4 from d7): unable to induce a corresponding elevation of IFN-γ expression | CRT exposure compared to doxorubicin ([2]; equitoxic doses): less effective in increasing CRT exposure | growth of MB49 tumors (MB49 tumors [3]; cisplatin alone, 0.5 mg/kg i.p. weekly×4): partially inhibited tumor growth but failed to arrest tumor progression

COc1cccc2c1C(=O)c1c(O)c3c(c(O)c1C2=O)C[C@@](O)(C(=O)CO)C[C@@H]3O[C@H]1C[C@H](N)[C@H](O)[C@H](C)O1 [doxorubicin]
tumor growth (MB49 tumors [4]; intratumoral doxorubicin 10 μg on d3 following tumor inoculation): able to arrest tumor growth | tumor growth (MB49 tumors [4]; intratumoral doxorubicin 10 μg on d10 following tumor inoculation): failed to inhibit the progressive growth | IFN-γ^+CD8^+ T cells ([1]; doxorubicin alone, 5 mg/kg i.p. weekly×3 from d7, 5 mg/kg): IFN-γ^+CD8^+ T cells became evident; also recorded: tumor-reactive IFN-γ^+CD8^+ T cells were evident | surface exposure of CRT ([2]; doxorubicin 10 μM): induced rapid surface exposure of CRT; also recorded: efficient translocation of CRT to the cell surface | growth of MB49 tumors (MB49 tumors [3]; doxorubicin alone, 5 mg/kg i.p. weekly×3): inhibited the growth of MB49 tumors but failed to arrest tumor progression | surface exposure of CRT [5]: induced rapid surface exposure of CRT | IFN-γ secretion by DLN cells on re-challenge with MB49 cell lysates (MB49 tumor cells): failed to induce a corresponding increase in IFN-γ secretion

CCc1c2c(nc3ccc(OC(=O)N4CCC(N5CCCCC5)CC4)cc13)-c1cc3c(c(=O)n1C2)COC(=O)[C@]3(O)CC [irinotecan]
time after which Rae1 mRNA began to decline [6]: 48 h | growth of CT26 tumors (CT26 tumors; 50 mg/kg i.p. weekly×3 from d5): inhibited the growth of CT26 tumors | growth of CT26 tumors (CT26 tumors; 50 mg/kg i.p. weekly×3 from d7): only slowed tumor growth | cell surface expression of MICA, MICB ([7]; HCT116 cells): upregulated | p53 dependence of upregulation of MICA/B ([7]; isogenic p53^+/+ and p53^−/− HCT116 cells): p53 is not required

O=C1[O][Pt]2([NH][C@@H]3CCCC[C@H]3[NH]2)[O]C1=O [oxaliplatin]
time after which Rae1 mRNA began to decline [6]: 48 h
